Data published in patent US20260337153A1, “IONIZABLE AMINE LIPIDS” (Intellia Therapeutics, Inc., priority 2023, published 2026).
“And” between values parts separate entries of the source, which are not always exact repeats. Identical values can stand only once.

How the values were obtained:
Format in all cases: physicochemical
[1] = LNP encapsulation efficiency of RNA (Ribogreen fluorescence assay); conditions: Table 3, Experiments 1-13; LNP 50% ionizable lipid, 38% cholesterol, 9% DSPC, 3% PEG2K-DMG; sgRNA:mRNA 1:2
Experimental: (§1) LNP compositions are analyzed for average particle size, polydispersity index (pdi), total RNA content, encapsulation efficiency of RNA, and zeta potential. LNP compositions may be further characterized by lipid analysis, AF4-MALS, NTA, and/or cryo-EM.
Encapsulation efficiency is calculated as (Total RNA−Free RNA)/Total RNA. A fluorescence-based assay (Ribogreen®, ThermoFisher Scientific) is used to determine total RNA concentration and free RNA. LNP samples are diluted appropriately with 1×TE buffer containing 0.2% Triton-X 100 to determine total RNA or 1×TE buffer to determine free RNA. Standard curves are prepared by utilizing the starting RNA solution used to make the compositions and diluted in 1×TE buffer+/−0.2% Triton-X 100. Diluted RiboGreen® dye (according to the manufacturer's instructions) is then added to each of the standards and samples and allowed to incubate for approximately 10 minutes at room temperature, in the absence of light. A SpectraMax M5 Microplate Reader (Molecular Devices) is used to read the samples with excitation, auto cutoff and emission wavelengths set to 488 nm, 515 nm, and 525 nm respectively. Total RNA and free RNA are determined from the appropriate standard curves. Alternatively, the total RNA concentration can be determined by a reverse-phase ion-pairing (RP-IP) HPLC method. Triton X-100 is used to disrupt the LNPs, releasing the RNA. The RNA is then separated from the lipid components chromatographically by RP-IP HPLC and quantified against a standard curve using UV absorbance at 260 nm.
(§2) In vivo editing efficiency for materials delivered with formulations including various amine lipid (or ionizable lipid) compounds in Experiments 1 through 14 as described in Tables 3 and 4 was assessed. Editing was measured using G000534 (SEQ ID NO: 5) which targets the rat TTR gene. Lipids described above were assessed for efficacy through in vivo editing experiments. LNPs were formulated at a 1:2 w/w ratio of sgRNA (SEQ ID NO: 5) and Cas9 mRNA (SEQ ID NO: 3). In Experiments 1 through 13, lipid components of the LNP are formulated in a molar ratio of 50% ionizable lipid, 38% cholesterol, 9% DSPC, and 3% PEG2K-DMG. In Experiment 14, lipid components of the LNP are formulated in a molar ratio of 50% ionizable lipid, 38% cholesterol, 9% DSPC, and 3% C13 Ether. The final LNPs used in different in vivo editing experiments were characterized to determine the encapsulation efficiency (% E), polydispersity index (PDI), and average particle size (Z-avg and number mean) according to the analytical methods provided above. The pKa values of each of the following ionizable lipids were also measured to be in the range of about 5.8 to about 7.6.
(§3) In vivo editing efficiency for materials delivered with formulations including various combinations of amine lipid (or ionizable lipid) and PEG lipid compounds was assessed as described in Tables 5 and 6. Editing was measured using G000534 (SEQ ID NO: 5) which targets the rat TTR gene. Lipids described above were assessed for efficacy through in vivo editing experiments. LNPs were formulated at a 1:2 w/w ratio of sgRNA (SEQ ID NO: 5) and Cas9 mRNA (SEQ ID NO:3). Lipid components of the LNP are formulated in a molar ratio of 50% ionizable lipid, 38% cholesterol, 9% DSPC, and 3% of various PEG lipids (e.g., PEG2K-DMG, C13 Ether, C14 Ether). The final LNPs used in different in vivo editing experiments were characterized to determine the encapsulation efficiency (% E), polydispersity index (PDI), and average particle size (Z-avg and number mean) according to the analytical methods provided above. The pKa values of each of the following ionizable lipids were also measured to be in the range of about 5.8 to about 7.6.
In vivo editing efficiency for materials delivered with formulations including various amine lipid (or ionizable lipid) compounds as described in Tables 7 and 8 was assessed. […]

[2] = pKa of unformulated amine lipid by TNS fluorescence; conditions: sodium phosphate buffer; Table 2; unformulated amine lipid, TNS; read-out: Lipid pKa
Experimental: The pKa of each amine lipid was determined according to the method in Jayaraman, et al. (Angew Chem Int Ed Engl 51(34), 2012, 8529-8533) with the following adaptations. The pKa was determined for unformulated amine lipid in ethanol. Lipid stock solutions (2.94 mM) were diluted into Sodium Phosphate Buffers (0.1 M, Boston Bioproducts) of different pH (pH-range: 4.5-9.0) yielding a final lipid concentration of approx. 100 μM. The test samples were supplemented with TNS {6-(p-Toluidino)-2-naphthalenesulfonic acid sodium salt}, incubated and the fluorescence intensity was measured using excitation and emission wavelengths of 321 nm and 448 nm, respectively. The recorded data were normalized and the respective pKa values were derived from sigmoidal fitting.

[3] = LNP average particle size and polydispersity by dynamic light scattering; conditions: Table 3, Experiments 1-13; LNP 50% ionizable lipid, 38% cholesterol, 9% DSPC, 3% PEG2K-DMG; sgRNA:mRNA 1:2
Experimental: Dynamic Light Scattering (“DLS”) is used to characterize the polydispersity index (“pdi” or “PDI”) and size of the LNPs of the present disclosure. DLS measures the scattering of light that results from subjecting a sample to a light source. PDI, as determined from DLS measurements, represents the distribution of particle size (around the mean particle size) in a population, with a perfectly uniform population having a PDI of zero.
as §1
Average particle size and polydispersity are measured by dynamic light scattering (DLS) using a Malvern Zetasizer DLS instrument. LNP samples were diluted with PBS buffer prior to being measured by DLS. Z-average diameter (“Z-avg”) which is an intensity-based measurement of average particle size was reported along with number average diameter (“number mean”) and PDI. A Malvern Zetasizer instrument is also used to measure the zeta potential of the LNP. Samples are diluted 1:17 (50 μL into 800 μL) in 0.1×PBS, pH 7.4 prior to measurement.
as §2, §3
In vivo editing efficiency for materials delivered with formulations including various amine lipid (or ionizable lipid) compounds as described in Tables 7 and 8 was assessed. Editing was measured using G000534 (SEQ ID NO: 5) which targets the rat TTR gene. Lipids described above were assessed for efficacy through in vivo editing experiments. LNPs were formulated at a 1:2 w/w ratio of sgRNA (SEQ ID NO: 5) and Cas9 mRNA (SEQ ID NO: 3). Lipid components of the LNP were formulated in a molar ratio of 50% ionizable lipid, 38% cholesterol, 9% DSPC, and 3% C13 Ether. […]

Row | SMILES | % E (encapsulation efficiency) [1] | pKa [2] | Number mean [3] | PDI [3] | Z-avg [3]
1 | CCCCC/C=C\C/C=C\CCCCCCCC(=O)OCC(CCCCC(=O)OC(CCCC)CCCC)COC(=O)OCCCN(C)CC (stereo not drawn) [Compound 13, 2-((((3-(ethyl(methyl)amino)propoxy)carbonyl)oxy)methyl)-7-(nonan-5-yloxy)-7-oxoheptyl (9Z,12Z)-octadeca-9,12-dienoate] | 98% | 6.64 | 87 nm | 0.04 | 99 nm
2 | CCCCC/C=C\C/C=C\CCCCCCCC(=O)OCC(CCCCC(=O)OC(CCCC)CCCC)COC(=O)OCCCN(CC)CC (stereo not drawn) [Compound 14, 2-((((3-(diethylamino)propoxy)carbonyl)oxy)methyl)-7-(nonan-5-yloxy)-7-oxoheptyl (9Z,12Z)-octadeca-9,12-dienoate] | 96% | 6.27 | 107 nm | 0.01 | 114 nm
3 | CCCCC/C=C\C/C=C\CCCCCCCC(=O)OCC(CCCCC(=O)OC(CCCCCCCC)CCCCCCCC)COC(=O)OCCCN(CC)CC (stereo not drawn) [Compound 15, 2-((((3-(diethylamino)propoxy)carbonyl)oxy)methyl)-7-(heptadecan-9-yloxy)-7-oxoheptyl (9Z,12Z)-octadeca-9,12-dienoate] | 98% | 6.11 | 58 nm | 0.06 | 66 nm
4 | CCCCC/C=C\C/C=C\CCCCCCCC(=O)OCC(CCCCCCC(=O)OC(CCCCCCCC)CCCCCCCC)COC(=O)OCCCN(CC)CC (stereo not drawn) [Compound 16, 2-((((3-(diethylamino)propoxy)carbonyl)oxy)methyl)-9-(heptadecan-9-yloxy)-9-oxononyl (9Z,12Z)-octadeca-9,12-dienoate] | 99% | 5.98 | 62 nm | 0.03 | 68 nm
5 | CCCCC/C=C\C/C=C\CCCCCCCC(=O)OCC(CCCCC(=O)OC(CCCCCC)CCCCCC)COC(=O)OCCCN(CC)CC (stereo not drawn) [Compound 17, 2-((((3-(diethylamino)propoxy)carbonyl)oxy)methyl)-7-oxo-7-(tridecan-7-yloxy)heptyl (9Z,12Z)-octadeca-9,12-dienoate] | 99% | 6.13 | 67 nm | 0.03 | 74 nm
6 | CCCCC/C=C\C/C=C\CCCCCCCC(=O)OCC(CCCCCCC(=O)OC(CCCCCC)CCCCCC)COC(=O)OCCCN(CC)CC (stereo not drawn) [Compound 18, 2-((((3-(diethylamino)propoxy)carbonyl)oxy)methyl)-9-oxo-9-(tridecan-7-yloxy)nonyl (9Z,12Z)-octadeca-9,12-dienoate] | 99% | 6.08 | 69 nm | 0.01 | 75 nm
7 | CCCCC/C=C\C/C=C\CCCCCCCC(=O)OCC(CCCCCCCCC(=O)OC(CCCCCC)CCCCCC)COC(=O)OCCCN(CC)CC (stereo not drawn) [Compound 19, 2-((((3-(diethylamino)propoxy)carbonyl)oxy)methyl)-11-oxo-11-(tridecan-7-yloxy)undecyl (9Z,12Z)-octadeca-9,12-dienoate] | 99% | 6.09 | 66 nm | 0.02 | 71 nm
8 | CCCCC/C=C\C/C=C\CCCCCCCC(=O)OCC(CCCCCCC(=O)OC(CCCC)CCCC)COC(=O)OCCCN(CC)CC (stereo not drawn) [Compound 20, 2-((((3-(diethylamino)propoxy)carbonyl)oxy)methyl)-9-(nonan-5-yloxy)-9-oxononyl (9Z,12Z)-octadeca-9,12-dienoate] | 98% | 6.19 | 68 nm | 0.05 | 84 nm
9 | CCCCCCCCOC(CCC(=O)OCC(COC(=O)CCC(OCCCCCCCC)OCCCCCCCC)COC(=O)NCCN(CC)CC)OCCCCCCCC [Compound 22, 2-((((2-(diethylamino)ethyl)carbamoyl)oxy)methyl)propane-1,3-diyl bis(4,4-bis(octyloxy)butanoate)] | 99% | 6.66 | 77 nm | 0 | 82 nm
10 | CCCCC/C=C\C/C=C\CCCCCCCCC(COC(=O)CCCCCC(=O)OC(CCCCCCCC)CCCCCCCC)COC(=O)NCCN(CC)CC (stereo not drawn) [Compound 23, 1-((11Z,14Z)-2-((((2-(diethylamino)ethyl)carbamoyl)oxy)methyl)icosa-11,14-dien-1-yl) 7-(heptadecan-9-yl) heptanedioate] | 92% and 95% | 6.49 | 86 nm and 74 nm | 0.02 | 90 nm and 81 nm
11 | CCCCC/C=C\C/C=C\CCCCCCCC(=O)OCC(CCCCCCCCC(=O)OC(CCCCCCCC)CCCCCCCCC)COC(=O)CCC(CCCCCCCC)OC(=O)NCCN(C)CC (stereo not drawn) [Compound 24, 3-methyl-15-(9-(octadecan-9-yloxy)-9-oxononyl)-9-octyl-7,12-dioxo-8,13-dioxa-3,6-diazahexadecan-16-yl (9Z,12Z)-octadeca-9,12-dienoate] | 98% | 6.1 | 60 nm | 0.03 | 67 nm
12 | CCCCC/C=C\C/C=C\CCCCCCCC(=O)OCC(CCCCCCCCC(=O)OC(CCCCCCCC)CCCCCCCCC)COC(=O)CCC(CCCCCCCC)OC(=O)NCCN1CCCC1 (stereo not drawn) [Compound 25, 11-(octadecan-9-yloxy)-11-oxo-2-(((4-(((2-(pyrrolidin-1-yl)ethyl)carbamoyl)oxy)dodecanoyl)oxy)methyl)undecyl (9Z,12Z)-octadeca-9,12-dienoate] | 98% | 6.44 | 64 nm | 0.03 | 72 nm
